Consider 16 compounds from patent US7589219B2, “2,5-bis-diamine-[1,4]benzoquinonic derivatives, useful for the treatment of alzheimer's disease, method for preparing them and intermediates of said method” (priority 2002, dated 2009).

For assay [1], the system named is anti-NGF transgenic mice (AD11). Put plainly: Immunohistochemistry and neurostereology in anti-NGF transgenic mice (AD11). It is filed as in vivo, mouse. Particulars: for extracellular deposition of APP: 6 month-old AD11 mice (FIG. 19); for cholinergic deficit in the basal forebrain (number of cholinergic neurons): AD11 mice from 6 months of age for 15 days (FIG. 16); for number of cells accumulating β-amyloid protein in the hippocampus: treatment starting at 6 months of age (FIG. 20).

In assay [2] the target is AChE (from human erythrocytes, amphiphilic form, EC 3.1.1.7) (Homo sapiens, UniProt P22303). Kind of assay: biochemical. Particulars: for Selectivity IC50(BuChE)/IC50 (AChE): ratio of the Table I IC50 values.
Assay [3] deals with BuChE (from human serum, EC 3.1.1.8) (Homo sapiens, UniProt P06276). Put plainly: biochemical.
Assay [4] deals with AChE, from human erythrocytes EC 3.1.1.7 (Homo sapiens, UniProt P22303). It is filed as biochemical.
Assay [5] deals with recombining human AChE (HuAChE, EC 3.1.1.7) (Homo sapiens, UniProt P22303). Type of assay: biochemical. As to conditions: mean of two independent measurements in triplicate.
The target of assay [6] is aggregation of Aβ (1-40) induced by AChE (recombining human, EC 3.1.1.7) (Homo sapiens, UniProt P22303). Put plainly: biochemical. It is filed as biochemical.
The test system of another assay is AD11 mice. Kind of assay: Object recognition test in AD11 mice. It is filed as in vivo, mouse.
Assay [7] deals with non transgenic mice treated with scopolamine. Put plainly: Object recognition test, amnesia induced by scopolamine in non transgenic mice. Type of assay: in vivo, mouse. Particulars: per os 15 mg/kg 20 min before scopolamine 0.5 mg/kg s.c. (FIG. 14).
The nature of assay [8]: Total antioxidant status (Randox kit, modified), capture of oxygen radicals, ABTS colorimetric method. Type of assay: biochemical. As to conditions: for % inhibition (antioxidant activity): absorbance 600 nm, 3 min, pH 7.4, 37° C.
The mark [9] stands for this setting: AD11 mice, 15 days starting at 6 months of age (FIG. 18).
Setting [10] is: AChE from human erythrocytes, Ellman's method, Table I, read-out: IC50(AChE).
Setting [11] is: BuChE from human serum, Ellman's method, Table I, read-out: IC50 (BuChE).
[12] abbreviates: BuChE from human serum, Example 50 table, mean of two independent measurements in triplicate, read-out: IC50 (BuChE).
[13] abbreviates: AD11 mice aged 15 months, per os 7 mg/kg/day for 1 month, versus placebo (FIG. 11).
[14] abbreviates: AD11 mice, daily from 1.5 months until 2 months of age, per os or intraperitoneal, comparison of AChE inhibitors (FIG. 15).

“Also recorded” adds a separate entry of the source. Read-outs that look alike come from different tables or passages of the source.

recombining human AChE (HuAChE, EC 3.1.1.7), sequence (P22303 32-614): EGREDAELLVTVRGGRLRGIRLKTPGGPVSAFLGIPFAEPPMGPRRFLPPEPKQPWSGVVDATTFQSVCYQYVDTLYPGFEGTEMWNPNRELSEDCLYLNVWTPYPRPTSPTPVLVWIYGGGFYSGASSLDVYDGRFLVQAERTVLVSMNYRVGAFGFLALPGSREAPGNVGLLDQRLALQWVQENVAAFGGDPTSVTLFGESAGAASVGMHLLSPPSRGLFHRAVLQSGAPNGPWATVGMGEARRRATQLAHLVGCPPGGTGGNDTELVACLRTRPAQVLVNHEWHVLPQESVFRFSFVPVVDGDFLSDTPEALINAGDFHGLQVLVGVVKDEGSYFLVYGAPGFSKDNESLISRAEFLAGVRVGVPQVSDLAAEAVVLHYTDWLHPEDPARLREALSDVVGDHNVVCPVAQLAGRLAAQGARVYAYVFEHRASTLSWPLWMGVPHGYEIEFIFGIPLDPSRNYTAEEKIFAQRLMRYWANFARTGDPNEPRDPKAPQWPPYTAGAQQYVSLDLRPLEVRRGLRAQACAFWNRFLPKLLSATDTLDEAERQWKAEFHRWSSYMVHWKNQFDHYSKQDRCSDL
BuChE (from human serum, EC 3.1.1.8), sequence (P06276 29-602): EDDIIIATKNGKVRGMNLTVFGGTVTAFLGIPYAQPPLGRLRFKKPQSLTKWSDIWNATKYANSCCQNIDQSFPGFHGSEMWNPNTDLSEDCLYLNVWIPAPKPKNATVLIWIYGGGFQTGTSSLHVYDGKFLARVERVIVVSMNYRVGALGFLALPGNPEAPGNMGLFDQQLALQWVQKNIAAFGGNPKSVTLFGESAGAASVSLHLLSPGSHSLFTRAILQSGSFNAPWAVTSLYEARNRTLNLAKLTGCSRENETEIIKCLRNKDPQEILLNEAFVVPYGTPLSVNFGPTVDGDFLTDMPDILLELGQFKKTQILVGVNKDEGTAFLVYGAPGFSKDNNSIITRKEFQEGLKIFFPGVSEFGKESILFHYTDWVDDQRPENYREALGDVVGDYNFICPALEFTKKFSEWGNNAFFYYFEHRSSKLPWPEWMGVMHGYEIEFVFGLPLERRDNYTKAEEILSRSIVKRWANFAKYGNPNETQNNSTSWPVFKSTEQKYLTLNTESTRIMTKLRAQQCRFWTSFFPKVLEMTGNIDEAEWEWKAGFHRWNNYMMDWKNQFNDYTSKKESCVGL
AChE (from human erythrocytes, amphiphilic form, EC 3.1.1.7), sequence (P22303 32-617 isoform P22303-2 limits assumed): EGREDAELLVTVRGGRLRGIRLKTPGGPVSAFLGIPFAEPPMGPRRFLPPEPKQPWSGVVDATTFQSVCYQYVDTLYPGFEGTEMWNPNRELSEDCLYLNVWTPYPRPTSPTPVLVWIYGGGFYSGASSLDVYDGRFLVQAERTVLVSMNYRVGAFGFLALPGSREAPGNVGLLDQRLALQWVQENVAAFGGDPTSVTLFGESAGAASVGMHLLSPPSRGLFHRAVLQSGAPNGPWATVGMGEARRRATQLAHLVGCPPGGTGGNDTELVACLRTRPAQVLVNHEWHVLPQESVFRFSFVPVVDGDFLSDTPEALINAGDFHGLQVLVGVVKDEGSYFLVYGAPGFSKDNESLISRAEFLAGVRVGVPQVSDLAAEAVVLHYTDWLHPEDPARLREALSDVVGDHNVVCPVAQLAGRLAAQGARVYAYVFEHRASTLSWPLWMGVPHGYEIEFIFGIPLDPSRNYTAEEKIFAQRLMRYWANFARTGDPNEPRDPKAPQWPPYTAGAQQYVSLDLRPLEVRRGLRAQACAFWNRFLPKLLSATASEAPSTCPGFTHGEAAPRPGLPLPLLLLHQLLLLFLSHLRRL
aggregation of Aβ (1-40) induced by AChE (recombining human, EC 3.1.1.7), sequence (P22303 32-614): as the sequence (P22303 32-614) above
AChE, from human erythrocytes EC 3.1.1.7, sequence (P22303 32-617 isoform P22303-2 limits assumed): as the sequence (P22303 32-617 isoform P22303-2 limits assumed) above

As for `COc1ccccc1CN(C)CCCCCC(=O)N(C)CCCCCCCCN(C)C(=O)CCCCCN(C)Cc1ccccc1OC` [Caproctamine, reference compound], in assay [1], the “extracellular deposition of APP” value was “ineffective” and the “cholinergic deficit in the basal forebrain (number of cholinergic neurons)” value was “had no effect on the number of cholinergic neurons”. Moreover, the “number of neurons labelled with antibodies against phospho-tau (entorhinal cortex)” value in assay [1] (setting [9]) is “ineffective”. The “number of cells accumulating β-amyloid protein in the hippocampus” value in [1] (AD11 mice) is on record as “ineffective”.

`CCN(CCCCCCNC1=CC(=O)C(NCCCCCCN(CC)Cc2ccccc2OC)=CC1=O)Cc1ccccc1OC` [Compound XVI, 2,5-Bis-{6-[ethyl-(2-methoxy-benzyl)-amino]-hexylamino}-[1,4]benzoquinone]: the IC50 was 2.39 ± 0.14 nM in [2] (setting [10]); 1440 ± 100 nM in assay [3] (setting [11]); 1440 ± 100 nM in assay [3] (setting [12]); about 1450 nM in assay [3] (approximate, corresponds to the Table I IC50, read-out: pIC50(BChE) (converted)); 1.55 ± 0.11 nM in assay [5]; 28300 ± 300 nM in assay [6] (read-out: concentration able to reduce the signal of fluorescence by 50% (IC50, AChE-induced Aβ aggregation), Aβ 230 μM, AChE 2.3 μM, thioflavine T fluorescence). Moreover, the “Selectivity IC50(BuChE)/IC50 (AChE)” value in assay [2] was 602. Also, the type of inhibition result in assay [4] (Lineweaver-Burk analysis (FIG. 1)) is reported as “competitive inhibitor of a mixed type”. For the same compound, the affinity in [4] (acetylthiocholine 111-550 μM, Lineweaver-Burk, intercept of the gradient plot), expressed as Ki, was 2.6 nM. Further, the “extracellular deposition of APP” value in [1] is listed as “reduced the extracellular deposition of APP”. For the same compound, the “number of cholinergic neurons in the basal forebrain” value in [1] (AD11 mice aged 15 months, per os 7 mg/kg/day for 1 month (FIG. 9)) is “improvement in the number of cholinergic neurons”; in [1] (setting [14]) it was “prevented the decrease of the number of cholinergic neurons”. For the same compound, the “intracellular accumulation of hyperphosphorylated tau” value in assay [1] (AD11 mice aged 15 months, per os 7 mg/kg/day for 1 month, versus placebo (FIG. 10)) is given as “decreased”. Further, the “number of cells associated with plaques” value in [1] (setting [13]) is reported as “lower than that in placebo-treated mice”. Moreover, the “number of β-amyloid plaques” value in [1] (setting [13]) is given as “decrease in the number of β-amyloid plaques”. In addition, the “cholinergic deficit in the basal forebrain (number of cholinergic neurons)” value in assay [1] is “able to rescue the cholinergic deficit”. For the same compound, in assay [1] (AD11 mice of 2 months, 7 mg/kg intraperitoneal daily for 15 days (FIG. 7)), the “APP deposition in the cerebral vessels” value is “able to reduce markedly the cerebrovascular deposition of APP”. In addition, the “tau hyperphosphorylation in the cortex” value in assay [1] (AD11 mice of 2 months, 7 mg/kg intraperitoneal daily for 15 days (FIG. 8)) was “partly prevented”. For the same compound, the “cholinergic neurons in the basal nucleus of Meynert” value in assay [1] (AD11 mice, 7 mg/kg intraperitoneal daily for 15 days from age 1.5 to 2 months (FIG. 6)) is listed as “efficacious in preventing the loss of cholinergic neurons”. For the same compound, in assay [1] (AD11 mice, 7 mg/kg intraperitoneal daily for 15 days from age 1.5 to 2 months (FIGS. 4, 5)), the “ChAT positive cholinergic neurons in the basal forebrain” value is given as “able to prevent the cholinergic deficit in the basal forebrain”. Further, the “number of neurons labelled with antibodies against phospho-tau (entorhinal cortex)” value in assay [1] (AD11 mice, 15 days starting at 1.5 months of age (FIG. 17)) is “reduced the number of neurons labelled with antibodies against phospho-tau”; in assay [1] (setting [9]) it was “reduced the number of neurons labelled with antibodies against phospho-tau”. Further, the “number of cells accumulating β-amyloid protein in the hippocampus” value in [1] (AD11 mice) is “able to reduce the number of cells accumulating β-amyloid protein”. For the same compound, the “behavioural deficit, object recognition test (discrimination index)” value with AD11 mice (AD11 mice at 6 months, 15 mg/kg/day per os for 15 days (FIGS. 12, 21), 15 mg/kg/day) is recorded as “improvement of the deficit; also recorded: marked amelioration of the behavioural deficit”; in the assay on AD11 mice (AD11 mice at 12 months, 15 mg/kg/day per os for 15 days (FIG. 13)), “improvement of the deficit”. In [7], the “amnesia induced by scopolamine, object recognition test” value was “did not show any signs of amnesia”. In addition, the “% inhibition (antioxidant activity)” value in [8] (concentration 170 μM, with human serum albumin 25 μM) is 44.1 ± 3.7%. In addition, the “antioxidant power, times lower than Trolox” value in [8] (oxidated quinonic form tested) is recorded as “about 6 times”.

As to `CCN(CCCCCCCNC1=CC(=O)C(NCCCCCCCN(CC)Cc2ccccc2OC)=CC1=O)Cc1ccccc1OC` [IL, 2,5-bis-{7-[ethyl-(2-methoxy-benzyl)-amino]-heptylamino}-[1,4]benzoquinone], the IC50 in assay [3] (setting [12]) was 1250 ± 250 nM; in assay [5] it was 7.79 ± 0.37 nM.

Turning to `COc1ccccc1CNCCCCCCNC1=CC(=O)C(NCCCCCCNCc2ccccc2OC)=CC1=O` [LI, 2,5-bis-[6-(2-methoxy-benzylamino)-hexylamino]-[1,4]-benzoquinone], the IC50 came to 3230 ± 150 nM in [3] (setting [12]) and 123 ± 20 nM in [5].

In the case of `COc1ccccc1CN(C)CCCCCCNC1=CC(=O)C(NCCCCCCN(C)Cc2ccccc2OC)=CC1=O` [LIV, 2,5-bis-{6-[(2-methoxy-benzyl)-methylamino]-hexylamino}-[1,4]-benzoquinone], the IC50 in [3] (setting [12]) is 5110 ± 410 nM; in assay [5] it was 77.8 ± 4.3 nM.

As to `CCN(CCCCCCNC1=C(C)C(=O)C(NCCCCCCN(CC)Cc2ccccc2OC)=C(C)C1=O)Cc1ccccc1OC` [LV, 2,5-bis-{6-[ethyl-(2-methoxy-benzyl)-amino]-hexylamino}-3,6-dimethyl-[1,4]-benzoquinone], the IC50 amounted to 462 ± 2 nM in assay [3] (setting [12]) and 9.5 ± 0.23 nM in assay [5].

For `Nc1c2c(nc3ccccc13)CCCC2` [Tacrine, reference compound], the “number of cholinergic neurons in the basal forebrain” value in assay [1] (setting [14]) is “aggravated the cholinergic deficit”.

Regarding `Cc1c(C)c2c(c(C)c1O)CCC(C)(C(=O)O)O2` (centres unmarked) [Trolox, 6-hydroxy-2,5,7,8-tetramethylchroman-2-carboxylic acid, reference compound], in [8] (concentration 27 μM), the “% inhibition (antioxidant activity)” value came out at 57.6 ± 0.9%.

On to `CCN(CCCNC1=CC(=O)C(NCCCN(CC)Cc2ccccc2OC)=CC1=O)Cc1ccccc1OC` [XII, 2,5-Bis-{3-[ethyl-(2-methoxy-benzyl)-amino]-propylamino}-[1,4]benzoquinone], for which the IC50 in assay [2] (setting [10]) is 3.19 ± 0.15 nM; in assay [2] (approximate, corresponds to the Table I IC50, read-out: pIC50(AChE) (converted)), about 3.24 nM; in [3] (setting [11]), 4490 ± 340 nM; in [5], 2.25 ± 0.21 nM. In assay [2], the “Selectivity IC50(BuChE)/IC50 (AChE)” value was 1407. Moreover, in [6] (concentration of 100 μM), the inhibition at 100 µM was about 90%.

As to `CCN(CCCCCCNC1=CC(=O)C(NCCCCCCN(CC)Cc2ccco2)=CC1=O)Cc1ccco1` [XLI, 2,5-bis-[6-(ethyl-furan-2-ilmethyl-amino)-hexylamino]-[1,4]benzoquinone], the IC50 in assay [3] (setting [12]) worked out at 3510 ± 180 nM; in assay [5] it was 144 ± 3 nM.

Turning to `CCN(CCNC1=CC(=O)C(NCCN(CC)Cc2ccccc2OC)=CC1=O)Cc1ccccc1OC` [XLV, 2,5-bis-{2-[ethyl-(2-methoxy-benzyl)-amino]-ethylamino}-[1,4]benzoquinone], the IC50 in assay [3] (setting [12]) came to 16800 ± 1100 nM; in assay [5], 61.5 ± 1.3 nM.

As to `CCN(CCCCCCNC1=CC(=O)C(NCCCCCCN(CC)Cc2ccccc2)=CC1=O)Cc1ccccc1` [XVII, 2,5-Bis-[6-(benzyl-ethyl-amino)-hexylamino]-[1,4]benzoquinone], the results for the IC50 in assay [3] (setting [12]) and in assay [5] were 645 ± 33 nM and 73.3 ± 3.2 nM, respectively.

As for `CCN(CCCCCCNC1=CC(=O)C(NCCCCCCN(CC)Cc2ccccc2Cl)=CC1=O)Cc1ccccc1Cl` [XVIII, 2,5-Bis-{6-[ethyl-(2-chloro-benzyl)-amino]-hexylamino}-[1,4]benzoquinone], the IC50 came out at 45100 ± 1000 nM in assay [3] (setting [12]) and 593 ± 51 nM in [5].

Take `CCN(CCCCCCNC1=CC(=O)C(NCCCCCCN(CC)Cc2ccccc2[N+](=O)[O-])=CC1=O)Cc1ccccc1[N+](=O)[O-]` [XXIX, 2,5-bis-{6-[ethyl-(2-nitro-benzyl)-amino]-hexylamino}-[1,4]benzoquinone]: the IC50 in [3] is 36500 ± 8800 nM; in assay [5], 2310 ± 130 nM.

`CCN(CCCCCCNC1=CC(=O)C(NCCCCCCN(CC)Cc2cccc(OC)c2)=CC1=O)Cc1cccc(OC)c1` [XXXIII, 2,5-bis-{6-[ethyl-(3-methoxy-benzyl)-amino]-hexylamino}-[1,4]benzoquinone]: the IC50 in assay [3] (setting [12]) stood at 2170 ± 70 nM; in [5], 13.8 ± 1.7 nM.

`CCN(CCCCCCNC1=CC(=O)C(NCCCCCCN(CC)Cc2ccc(OC)cc2)=CC1=O)Cc1ccc(OC)cc1` [XXXVII, 2,5-bis-{6-[ethyl-(4-methoxy-benzyl)-amino]-hexylamino}-[1,4]benzoquinone]: the IC50 in [3] (setting [12]) was determined as 2420 ± 940 nM; in assay [5], 51.1 ± 1 nM.
